From patent US20080233191A1, “USE OF RANOLAZINE FOR ELEVATED BRAIN-TYPE NATRIURETIC PEPTIDE” (priority 2007, published 2008)

Tested on: patients with non-ST elevation ACS
Experiment: MERLIN-TIMI 36 trial: randomized, double-blind, placebo-controlled; effect of ranolazine stratified by baseline BNP
Type: in vivo, human
Conditions: ranolazine vs placebo
Excerpt: Ranolazine is believed to exert anti-ischemic effects through a reduction in myocardial cellular sodium and calcium overload with a consequent reduction in wall stress. B-type natriuretic peptide (BNP) is released in response to increased wall stress and is a potent indicator of risk in acute coronary syndromes (ACS). This study was a prospective evaluation of the interaction between BNP and the effect of ranolazine as part of a randomized, double-blind, placebo-controlled trial.
Plasma BNP were measured (ADVIA® BNP) at baseline (N=4543), 14 days (N=4079), and the Final Visit (N=3328) of the patients with non-ST elevation ACS randomized to ranolazine or placebo in the MERLIN-TIMI 36 trial. Patients were stratified using BNP>80 pg/mL based upon prior work with this assay. The primary endpoint of the trial was a composite of cardiovascular death, myocardial infarction, or recurrent ischemia (CVD/Ml/Rl).

`COc1ccccc1OCC(O)CN1CCN(CC(=O)Nc2c(C)cccc2C)CC1` (racemic) [ranolazine, (±)-N-(2,6-dimethylphenyl)-4-[2-hydroxy-3-(2-methoxyphenoxy)propyl]-1-piperazine-acetamide] was tested, and the “endpoint component of worsening angina, HR” value (BNP>80 pg/mL, CI 0.35-0.84, p=0.005) was 0.55, the “endpoint component of worsening angina, HR” value (BNP≦80 pg/mL, 95% CI 0.63-1.28, p=0.55) was 0.90 and the “primary endpoint (composite of cardiovascular death, myocardial infarction, or recurrent ischemia), HR” value (patients with BNP>80 pg/mL, 95% CI 0.66-0.94, p=0.009) was 0.79. For the same molecule, the “primary endpoint (composite of cardiovascular death, myocardial infarction, or recurrent ischemia), effect” value (patients with a negative BNP result, p-interaction=0.052) was “lack of detectable effect”.
